Test results: US9958434B2, “Fluorescent probe sensing tyrosine kinase and use thereof” (POSTECH ACADEMY-INDUSTRY FOUNDATION, priority 2013, dated 2018)

Key:
[1] = biological target: T1, PDGFRa (Homo sapiens, UniProt P16234); assay: Protein binding selectivity by change in fluorescence (fluorescence turn-on on binding)
T1 construct: purchased Carna Biosciences
Protocol: (§1) More particularly, to determine whether compound 1 selectively binds to a kinase enzyme, various proteins (including a kinase enzyme) were used to check a change in fluorescence. In this experiment, a buffer (100 mM HEPES buffer, pH 7.4) was used as the solvent, and a kinase commercially available from Carna Biosciences was used as the kinase enzyme. Here, each kinase enzyme was stored at −80° C. together with a solvent (50 mM Tris-HCl, 150 mM NaCl, 0.1% CHAPS, 1 mM DTT, and 10% Glycerol, pH 7.5) kindly provided by the manufacturer. […] A 96-well fluorescence assay plate (commercially available from SPL Life Science) was used as a plate used upon measurement of fluorescence, and a VCITOR 3 multilabel counter (commercially available from Perkin Elmer-Wellesley) was used as a measuring machine. A 355 nm-thick filter was used to produce excitation wavelengths of the measuring machine, and a 535 nm-thick filter was used to produce emission wavelengths of the measuring machine. Stirring was performed at 37° C. for 24 hours at a rotary speed of 170 rpm using an NB-205Q model (commercially available from N-BIOTEK). Compound 1 was dissolved in a DMSO solution (1 mM, 10 mM, 50 mM, 100 mM, and 200 mM) to be used, and DMSO in every tube was adjusted to be substantially the same content (less than 1%) under the finally used solvent conditions. Mg^2+ and ATP were used at a content of 1 mM.
In the graph shown in FIG. 2, the horizontal axis represents kinds of proteins, and the vertical axis represents fluorescence intensities of the proteins. Each experimental value was basically an average value of three experiments conducted through the same course for preparing for experiments, a concentration of compound 1 used was 100 μM, and an amount of each protein was 0.2 μg/mL. The kinds of proteins indicated on the horizontal axis are as follows.
More particularly, Model WUV-L10 commercially available from WiseUV was used as a UV excitation device, and the solvent and experiment conditions used were substantially the same as in Example 3. Here, a fluorescence emission observed in the UV excitation device (UV excitation at 350 nm to 430 nm) was determined by taking an image.
More particularly, compound 1 (100 μM) and the kinase enzyme, Src or PDGFRa, were used at contents of 0.2 μg and 1 μg, respectively, and the solvent and experiment conditions used were substantially the same as in Example 3.
(§2) More particularly, the solvent and experiment conditions used were substantially the same as in Example 3. In the graph shown in FIG. 7, A represents a fluorescence intensity when compound 1 (100 μM) is used alone, B represents a fluorescence intensity when Mg (1 mM) is added to compound 1, C represents a fluorescence intensity when ATP (1 mM) is added to compound 1, and D represents a fluorescence intensity when compound 1 is treated with Mg (1 mM) and ATP (1 mM) at the same time.
(§3) More particularly, a concentration of the kinase enzyme was set to 0.2 μg/mL, fluorescence intensity according to the concentration of compound 1 was measured in the presence of Mg (1 mM) and ATP (1 mM), and the solvent conditions and other conditions were substantially the same as in Example 3.

[2] = biological target: T2, Src (Homo sapiens, UniProt P12931); assay: as above
T2 construct: purchased Carna Biosciences
Protocol: as §1
In the graph shown in FIG. 2, the horizontal axis represents kinds of proteins, and the vertical axis represents fluorescence intensities of the proteins. Each experimental value was basically an average value of three experiments conducted through the same course for preparing for experiments, a concentration of compound 1 used was 100 μM, and an amount of each protein was 0.2 μg/mL. The kinds of proteins indicated on the horizontal axis are as follows. […]
as §2, §3

[3] = Absorbance and fluorescence in HEPES buffer; type: physicochemical; settings: 10 mM HEPES buffer, pH 7.5
Protocol: The present inventors measured absorbance and a change in fluorescence of compound 1 under various solvent conditions.
The present inventors measured the absorbance and fluorescence of compound 1 in a buffer (pH 7.5, 10 mM HEPES). A UV/Vis spectrophotometer commercially available from HP was used to analyze the UV/Vis absorption spectra, and a photon technical international fluorescence system commercially available from PTI was used to analyze the fluorescence spectra. In this case, a cell used when compound 1 was put into each type of equipment was a standard quartz cell having a thickness of 1 cm.
In addition to compound 1, compound 5 was shown as a reference material in FIG. 1. In this case, compound 5 is a reference material obtained by introducing an alkyl group into a —OH group of compound 1 to remove an intramolecular hydrogen bond.
The panels (a) and (b) of the graph show the absorbances and fluorescence intensities of compound 5 and compound 1 under a solvent condition (for example, a 10 mM HEPES buffer, pH 7.5).

[4] = compound 1 100 μM, protein 0.2 μg/mL, with Mg and ATP (1 mM), 37° C. 24 hours
[5] = compound 1 100 μM, case D: Mg (1 mM) and ATP (1 mM) together
[6] = compound 1 100 μM, enzyme 0.2 μg and 1 μg
[7] = compound 1 at approximately 50 μM, kinase 0.2 μg/mL, Mg 1 mM, ATP 1 mM

T2 sequence (P12931 whole entry): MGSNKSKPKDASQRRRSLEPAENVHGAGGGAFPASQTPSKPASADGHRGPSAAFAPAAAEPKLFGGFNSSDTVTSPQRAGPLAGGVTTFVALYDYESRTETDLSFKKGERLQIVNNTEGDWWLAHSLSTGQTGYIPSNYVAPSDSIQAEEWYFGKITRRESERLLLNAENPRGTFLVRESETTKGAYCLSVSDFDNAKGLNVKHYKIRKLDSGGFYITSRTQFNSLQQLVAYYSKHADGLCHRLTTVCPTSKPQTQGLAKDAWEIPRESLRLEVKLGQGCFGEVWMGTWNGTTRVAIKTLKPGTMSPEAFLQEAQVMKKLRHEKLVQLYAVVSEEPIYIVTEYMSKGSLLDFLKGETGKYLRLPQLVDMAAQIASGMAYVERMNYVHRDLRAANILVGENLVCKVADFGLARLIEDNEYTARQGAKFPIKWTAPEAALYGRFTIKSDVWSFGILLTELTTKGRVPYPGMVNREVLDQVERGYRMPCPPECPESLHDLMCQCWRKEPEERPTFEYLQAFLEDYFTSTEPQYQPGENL
T1 sequence (P16234 24-1089): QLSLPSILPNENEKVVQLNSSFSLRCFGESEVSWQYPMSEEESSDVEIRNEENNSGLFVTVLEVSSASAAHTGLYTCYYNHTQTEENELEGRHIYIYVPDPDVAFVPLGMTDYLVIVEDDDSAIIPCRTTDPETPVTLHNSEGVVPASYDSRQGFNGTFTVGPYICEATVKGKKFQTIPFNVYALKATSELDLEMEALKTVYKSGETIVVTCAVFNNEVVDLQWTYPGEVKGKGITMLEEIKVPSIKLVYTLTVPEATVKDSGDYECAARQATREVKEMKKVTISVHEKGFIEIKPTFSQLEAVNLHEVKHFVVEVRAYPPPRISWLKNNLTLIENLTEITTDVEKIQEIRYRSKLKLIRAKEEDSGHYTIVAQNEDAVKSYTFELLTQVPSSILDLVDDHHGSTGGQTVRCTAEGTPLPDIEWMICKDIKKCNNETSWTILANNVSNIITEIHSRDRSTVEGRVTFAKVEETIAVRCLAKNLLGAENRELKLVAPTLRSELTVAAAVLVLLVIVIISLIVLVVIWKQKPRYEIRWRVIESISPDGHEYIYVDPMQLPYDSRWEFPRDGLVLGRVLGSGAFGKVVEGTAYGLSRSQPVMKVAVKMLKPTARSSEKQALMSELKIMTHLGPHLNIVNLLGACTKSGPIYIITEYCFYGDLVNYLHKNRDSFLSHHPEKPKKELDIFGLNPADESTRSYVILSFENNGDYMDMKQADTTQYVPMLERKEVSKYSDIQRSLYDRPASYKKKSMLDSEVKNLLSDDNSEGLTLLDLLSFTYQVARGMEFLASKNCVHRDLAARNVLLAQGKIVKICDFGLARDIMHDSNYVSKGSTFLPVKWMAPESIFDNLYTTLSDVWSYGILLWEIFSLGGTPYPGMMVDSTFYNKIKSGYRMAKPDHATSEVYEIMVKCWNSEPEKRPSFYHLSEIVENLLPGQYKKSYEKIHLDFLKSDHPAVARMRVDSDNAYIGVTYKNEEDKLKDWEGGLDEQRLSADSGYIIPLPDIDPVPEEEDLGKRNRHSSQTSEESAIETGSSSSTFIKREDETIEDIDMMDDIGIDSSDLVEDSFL

Structure (SMILES): CN(C)c1ccc2cc(C=O)c(O)cc2c1 [compound 1, 6-(dimethylamino)-3-hydroxyl-2-naphthaldehyde]
- fluorescence under UV excitation (image) ([1]; PDGFRa with ATP and Mg, 37° C. 24 hours, UV 350 nm to 430 nm, compared with compound 1 alone): strong fluorescence
- fluorescence intensity [1, 4]: highest fluorescence intensity
- fluorescence intensity, effect of cofactors [1, 5]: highest increase in fluorescence intensity
- fluorescence signal intensity according to concentration of kinase enzyme [1, 6]: stronger fluorescence signal intensity at higher concentrations
- increase in fluorescence intensity [1, 7]: approximately 50%
- fluorescence intensity [2, 4]: increase in fluorescence
- fluorescence intensity, effect of cofactors [2, 5]: highest increase in fluorescence intensity
- fluorescence signal intensity according to concentration of kinase enzyme [2, 6]: stronger fluorescence signal intensity at higher concentrations
- increase in fluorescence intensity [2, 7]: approximately 50%
- fluorescence emission [3]: did not emit fluorescence
- maximum absorbance [3]: 390 nm
